Assay results published in ChEMBL document CHEMBL2331210, “New 2-benzylsulfanyl-nicotinic acid based 1,3,4-oxadiazoles: their synthesis and biological evaluation” (2013).
Converted amounts (≈) assume the structure as drawn.

Assays:
Assay type in all cases: functional
M14 = assay: Antitumor activity against human M14 cells assessed as cell growth at 0.1 uM; conditions: read-out: Activity
SF-268 = assay: Antitumor activity against human SF268 cells assessed as cell growth at 0.1 uM; conditions: read-out: Activity
UACC-257 = assay: Antitumor activity against human UACC257 cells assessed as cell growth at 0.1 uM; conditions: read-out: Activity
Escherichia coli = assay: Antimicrobial activity against Escherichia coli MTCC 443 assessed as growth inhibition measured after overnight incubation by broth dilution method
MDA-MB-435 = assay: Antitumor activity against human MDA-MB-435 cells assessed as cell growth at 0.1 uM; conditions: read-out: Activity
CCRF-CEM = assay: Antitumor activity against human CCRF-CEM cells assessed as cell growth at 0.1 uM; conditions: read-out: Activity
MDA-MB-231 = assay: Antitumor activity against human MDA-MB-231/ATCC cells assessed as cell growth at 0.1 uM; conditions: read-out: Activity
NCI-H23 = assay: Antitumor activity against human NCI-H23 cells assessed as cell growth at 0.1 uM; conditions: read-out: Activity
ACHN = assay: Antitumor activity against human ACHN cells assessed as cell growth at 0.1 uM; conditions: read-out: Activity
OVCAR-4 = assay: Antitumor activity against human OVCAR4 cells assessed as cell growth at 0.1 uM; conditions: read-out: Activity
SK-MEL-5 = assay: Antitumor activity against human SK-MEL-5 cells assessed as cell growth at 0.1 uM; conditions: read-out: Activity
Streptococcus pyogenes = assay: Antimicrobial activity against Streptococcus pyogenes MTCC 442 assessed as growth inhibition measured after overnight incubation by broth dilution method
DU-145 = assay: Antitumor activity against human DU145 cells assessed as cell growth at 0.1 uM; conditions: read-out: Activity
IGROV-1 = assay: Antitumor activity against human IGROV1 cells assessed as cell growth at 0.1 uM; conditions: read-out: Activity
NCI-H522 = assay: Antitumor activity against human NCI-H522 cells assessed as cell growth at 0.1 uM; conditions: read-out: Activity
[1] = Antitumor activity against human HCC2998 cells assessed as cell growth at 0.1 uM; conditions: HCC 2998, read-out: Activity
NCI-H460 = assay: Antitumor activity against human NCI-H460 cells assessed as cell growth at 0.1 uM; conditions: read-out: Activity
BT-549 = assay: Antitumor activity against human BT549 cells assessed as cell growth at 0.1 uM; conditions: read-out: Activity
UACC-62 = assay: Antitumor activity against human UACC62 cells assessed as cell growth at 0.1 uM; conditions: read-out: Activity
A549 = assay: Antitumor activity against human A549/ATCC cells assessed as cell growth at 0.1 uM; conditions: read-out: Activity
UO-31 = assay: Antitumor activity against human UO31 cells assessed as cell growth at 0.1 uM; conditions: read-out: Activity
SN12C = assay: Antitumor activity against human SN12C cells assessed as cell growth at 0.1 uM; conditions: read-out: Activity
NCI-H226 = assay: Antitumor activity against human NCI-H226 cells assessed as cell growth at 0.1 uM; conditions: read-out: Activity
SNB-75 = assay: Antitumor activity against human SNB75 cells assessed as cell growth at 0.1 uM; conditions: read-out: Activity
SW-620 = assay: Antitumor activity against human SW620 cells assessed as cell growth at 0.1 uM; conditions: read-out: Activity
SNB-19 = assay: Antitumor activity against human SNB19 cells assessed as cell growth at 0.1 uM; conditions: read-out: Activity
MOLT-4 = assay: Antitumor activity against human MOLT4 cells assessed as cell growth at 0.1 uM; conditions: read-out: Activity
KM12 = assay: Antitumor activity against human KM12 cells assessed as cell growth at 0.1 uM; conditions: read-out: Activity
HL-60 = assay: Antitumor activity against human HL60(TB) cells assessed as cell growth at 0.1 uM; conditions: read-out: Activity
NCI/ADR-RES = assay: Antitumor activity against human NCI/ADR-RES cells assessed as cell growth at 0.1 uM; conditions: read-out: Activity
SR = assay: Antitumor activity against human SR cells assessed as cell growth at 0.1 uM; conditions: read-out: Activity
CAKI-1 = assay: Antitumor activity against human CAKI-1 cells assessed as cell growth at 0.1 uM; conditions: read-out: Activity
SK-MEL-28 = assay: Antitumor activity against human SK-MEL-28 cells assessed as cell growth at 0.1 uM; conditions: read-out: Activity
Aspergillus niger = assay: Antimicrobial activity against Aspergillus niger MTCC 282 assessed as growth inhibition measured after overnight incubation by broth dilution method
HT-29 = assay: Antitumor activity against human HT-29 cells assessed as cell growth at 0.1 uM; conditions: read-out: Activity
[2] = Antitumor activity against human EKVX cells assessed as cell growth at 0.1 uM; conditions: read-out: Activity
T47D = assay: Antitumor activity against human T47D cells assessed as cell growth at 0.1 uM; conditions: read-out: Activity
Aspergillus clavatus = assay: Antimicrobial activity against Aspergillus clavatus MTCC 1323 assessed as growth inhibition measured after overnight incubation by broth dilution method
Pseudomonas aeruginosa = assay: Antimicrobial activity against Pseudomonas aeruginosa MTCC 2488 assessed as growth inhibition measured after overnight incubation by broth dilution method
HCT-116 = assay: Antitumor activity against human HCT116 cells assessed as cell growth at 0.1 uM; conditions: read-out: Activity
K562 = assay: Antitumor activity against human K562 cells assessed as cell growth at 0.1 uM; conditions: read-out: Activity
RXF 393 = assay: Antitumor activity against human RXF393 cells assessed as cell growth at 0.1 uM; conditions: read-out: Activity
SF-539 = assay: Antitumor activity against human SF539 cells assessed as cell growth at 0.1 uM; conditions: read-out: Activity
SF-295 = assay: Antitumor activity against human SF295 cells assessed as cell growth at 0.1 uM; conditions: read-out: Activity
SK-OV-3 = assay: Antitumor activity against human SKOV3 cells assessed as cell growth at 0.1 uM; conditions: read-out: Activity
OVCAR-8 = assay: Antitumor activity against human OVCAR8 cells assessed as cell growth at 0.1 uM; conditions: read-out: Activity
OVCAR-5 = assay: Antitumor activity against human OVCAR5 cells assessed as cell growth at 0.1 uM; conditions: read-out: Activity
RPMI-8226 = assay: Antitumor activity against human RPMI8226 cells assessed as cell growth at 0.1 uM; conditions: read-out: Activity
TK-10 = assay: Antitumor activity against human TK10 cells assessed as cell growth at 0.1 uM; conditions: read-out: Activity
U-251 = assay: Antitumor activity against human U251 cells assessed as cell growth at 0.1 uM; conditions: read-out: Activity
Staphylococcus aureus = assay: Antimicrobial activity against Staphylococcus aureus MTCC 96 assessed as growth inhibition measured after overnight incubation by broth dilution method
Malme-3M = assay: Antitumor activity against human MALME-3M cells assessed as cell growth at 0.1 uM; conditions: read-out: Activity
MDA-MB-468 = assay: Antitumor activity against human MDA-MB-468 cells assessed as cell growth at 0.1 uM; conditions: read-out: Activity
Candida albicans = assay: Antimicrobial activity against Candida albicans MTCC 227 assessed as growth inhibition measured after overnight incubation by broth dilution method
HCT-15 = assay: Antitumor activity against human HCT15 cells assessed as cell growth at 0.1 uM; conditions: read-out: Activity
PC-3 = assay: Antitumor activity against human PC3 cells assessed as cell growth at 0.1 uM; conditions: read-out: Activity
[3] = Antitumor activity against human Hs 578T cells assessed as cell growth at 0.1 uM; conditions: read-out: Activity
[4] = tested on: Mycobacterium tuberculosis; assay: Antitubercular activity against Mycobacterium tuberculosis H37Rv assessed as growth inhibition after 12 to 28 days by L.J. agar MIC method
OVCAR-3 = assay: Antitumor activity against human OVCAR3 cells assessed as cell growth at 0.1 uM; conditions: read-out: Activity
MCF7 = assay: Antitumor activity against human MCF7 cells assessed as cell growth at 0.1 uM; conditions: read-out: Activity
LOX IMVI = assay: Antitumor activity against human LOXIMVI cells assessed as cell growth at 0.1 uM; conditions: read-out: Activity
A498 = assay: Antitumor activity against human A498 cells assessed as cell growth at 0.1 uM; conditions: read-out: Activity
HOP-62 = assay: Antitumor activity against human HOP62 cells assessed as cell growth at 0.1 uM; conditions: read-out: Activity

**Q.** Which results are given for `c1ccc(CSc2ncccc2-c2nnc(SCCN3CCOCC3)o2)cc1`?
**A.** growth at 0.1 µM (M14): 108%; growth at 0.1 µM (SF-268): 107%; growth at 0.1 µM (UACC-257): 147%; MIC (Escherichia coli): 200 µg/mL (≈ 482 µM); growth at 0.1 µM (MDA-MB-435): 114%; growth at 0.1 µM (CCRF-CEM): 103%; growth at 0.1 µM (MDA-MB-231): 114%; growth at 0.1 µM (NCI-H23): 104%; growth at 0.1 µM (ACHN): 124%; growth at 0.1 µM (OVCAR-4): 106%; growth at 0.1 µM (SK-MEL-5): 102%; MIC (Streptococcus pyogenes): 200 µg/mL (≈ 482 µM); growth at 0.1 µM (DU-145): 112%; growth at 0.1 µM (IGROV-1): 98.3%; growth at 0.1 µM (NCI-H522): 105%; growth at 0.1 µM [1]: 116%; growth at 0.1 µM (NCI-H460): 122%; growth at 0.1 µM (BT-549): 112%; growth at 0.1 µM (UACC-62): 113%; growth at 0.1 µM (A549): 112%; growth at 0.1 µM (UO-31): 89.4%; growth at 0.1 µM (SN12C): 114%; growth at 0.1 µM (NCI-H226): 114%; growth at 0.1 µM (SNB-75): 79.6%; growth at 0.1 µM (SW-620): 107%; growth at 0.1 µM (SNB-19): 115%; growth at 0.1 µM (MOLT-4): 103%; growth at 0.1 µM (KM12): 107%; growth at 0.1 µM (HL-60): 101%; growth at 0.1 µM (NCI/ADR-RES): 107%; growth at 0.1 µM (SR): 104%; growth at 0.1 µM (CAKI-1): 100%; growth at 0.1 µM (SK-MEL-28): 107%; MIC (Aspergillus niger): 1000 µg/mL (≈ 2410 µM); growth at 0.1 µM (HT-29): 111%; growth at 0.1 µM [2]: 108%; growth at 0.1 µM (T47D): 101%; MIC (Aspergillus clavatus): 1000 µg/mL (≈ 2410 µM); MIC (Pseudomonas aeruginosa): 200 µg/mL (≈ 482 µM); growth at 0.1 µM (HCT-116): 108%; growth at 0.1 µM (K562): 117%; growth at 0.1 µM (RXF 393): 123%; growth at 0.1 µM (SF-539): 132%; growth at 0.1 µM (SF-295): 106%; growth at 0.1 µM (SK-OV-3): 109%; growth at 0.1 µM (OVCAR-8): 109%; growth at 0.1 µM (OVCAR-5): 119%; growth at 0.1 µM (RPMI-8226): 104%; growth at 0.1 µM (TK-10): 118%; growth at 0.1 µM (U-251): 117%; MIC (Staphylococcus aureus): 500 µg/mL (≈ 1210 µM); growth at 0.1 µM (Malme-3M): 111%; growth at 0.1 µM (MDA-MB-468): 98.3%; MIC (Candida albicans): 1000 µg/mL (≈ 2410 µM); growth at 0.1 µM (HCT-15): 105%; growth at 0.1 µM (PC-3): 111%; growth at 0.1 µM [3]: 133%; growth inhibition (GI) [4]: 99%; MIC ([4]; Mycobacterium tuberculosis, H37Rv): 25 µg/mL (≈ 60.3 µM); growth at 0.1 µM (OVCAR-3): 120%; growth at 0.1 µM (MCF7): 94.4%; growth at 0.1 µM (LOX IMVI): 108%; growth at 0.1 µM (A498): 107%; growth at 0.1 µM (HOP-62): 116%
